Where two headings read alike, the source gives them in different places.
Legend:
MEFs = conditions: OSKM, cited from earlier work
human Nanog promoter = assay: Nanog-luc luciferase reporter assay (stably transfected CV1 cells); assay type: cell-based; conditions: for Nanog-luc fold Induction / fold induction at 1 µM: compound at 1 μM, Nanog-luc cells, triplicates; for fold induction at 1 µM: Chlorocebus aethiops, CV-1; for induction of Nanog-luc, comparison with known reprogramming enhancers (in words): OAC1 1 μM, BIO 2 μM, BIX 2 μM, AzaC 2 μM, Vc 25 μg/ml, Am580 10 nM, tranylcypromine 5 μM, VPA 0.5 mM, two days
Protocol: Oct4, Sox2, and Nanog form a positive regulatory loop to regulate the expression of each other, and Nanog is considered a downstream target gene of Oct4 and Sox2 (37). Therefore, activation of Nanog promoter was used as a validation assay for the identified compounds. Specifically, the Oct4 promoter-activating compounds were tested to ascertain whether they activate a human
Nanog promoter-driven luciferase reporter gene using in triplicate luciferase reporter assays.
(§1) Then the promoter sequences were cloned into pGL4.4-luc-Hyg vector (Promega) to get Oct4-luc or Nanog-luc construct and the fidelity of the Oct4 and Nanog promoter DNA sequences was confirmed by bi-directional sequencing. CV 1 cells were transfected with the Oct4-luc or Nanog-luc constructs and the stably-transfected cells were selected by hygromycine resistance.
(§2) Luciferase Reporter Assays: The Oct4-luc or Nanog-luc cells were treated with compound OAC 1 or its structural analogs at 1 μM concentration or at indicated concentrations in triplicates. Other compounds used include 2 μM BIO, 2 μM BIX, 2 μM
(§3) AzaC, 25 μg/ml Vc, 10 nM Am580, 5 μM tranylcypromine, and 0.5 mM VPA. Luciferase reporter assays were performed as described (51) 24 hr after compound treatment or at indicated time points. For Topflash reporter assays, 0.2 μg β-catenin-responsive Topflash reporter gene plasmid was introduced into CV1 cells using trasfection (Bio-Rad). Compounds were added 6 hr after transfection. Luciferase activity was measured 48 hr after compound treatment using the Glo Luciferase Assay System (Promega).

human Oct4 promoter = assay: Oct4-luc luciferase reporter assay (stably transfected CV1 cells); assay type: cell-based; conditions: for Oct4-luc Activity / Oct4-luc fold Induction / fold induction at 1 µM: compound at 1 μM, Oct4-luc cells, triplicates; for induction of Oct4-luc, comparison with known reprogramming enhancers (in words): OAC1 1 μM, BIO 2 μM, BIX 2 μM, AzaC 2 μM, Vc 25 μg/ml, Am580 10 nM, tranylcypromine 5 μM, VPA 0.5 mM, two days
From the text: A high-throughput screening scheme was designed to identify Oct4 promoter-activating compounds using a luciferase reporter under the control of the human Oct4 promoter (Oct4-luc). […] A stable cell line (Oct4-luc) that expresses luciferase reporter driven by the exogenous Oct4 promoter was established using hygromycin-resistance as a selection marker. These Oct4-luc cells were used for high-throughput screening of a chemical library of 80,000 compounds. The luciferase reporter activity was measured 24 hr after compound treatment. Solvent treatment was included as a negative control.
as §1
Compound Screening: The Oct4-luc cells were seeded at 1.75×10^4 cells per well density into 96-well plates. Compounds were added to cells one day after cell seeding at the concentration of 10 μM for 24 hr in the High-Throughput Screening core facility at City of Hope. Compounds that induced luciferase activity 3-fold or more were selected for further validation in both Oct4-luc and Nanog-luc cells.
as §2, §3

[1] = seeding 7,500, day 30, reference (5) Ichida 2009
[2] = seeding 5 × 10^4, day 25, reference (4) Lyssiotis 2009
[3] = Homo sapiens, CV-1, 24 h, read-out: Oct4-luc Activity
[4] = read-out: Oct4-luc fold Induction

Row | Nanog-luc fold Induction (human Nanog promoter) | Oct4-luc fold Induction (human Oct4 promoter) | Compound | Oct4-luc Activity (human Oct4 promoter) | other results
1 | 1.6 fold | 1.5 fold | O=C(Nc1ccc2[nH]ncc2c1)c1ccccc1Br [Compound C24] | + (molecules that induce Oct4-luc less than 1.8-fold were indicated as “+”) | 
2 | 4.56 fold | 4.2 fold | CN(C)c1ccc(C(=O)Nc2ccc3[nH]ncc3c2)cc1 [OAC17] | ++ (Compounds that induce Oct4-luc 1.8-fold or more were classified as “++”) | 
3 | 1.1 fold | 1.0 fold | CCOc1ccc(C(=O)Nc2ccc3[nH]ncc3c2)cc1OCC [Compound C30] | + (molecules that induce Oct4-luc less than 1.8-fold were indicated as “+”) | 
4 | 1.9 fold | 1.9 fold | COc1cccc(C(=O)Nc2ccc3[nH]ncc3c2)c1 [OAC15] | ++ (Compounds that induce Oct4-luc 1.8-fold or more were classified as “++”) | 
5 | 3.9 fold | 3.8 fold | CC(C)c1ccc(C(=O)Nc2ccc3[nH]ncc3c2)cc1 [OAC11] | ++ (Compounds that induce Oct4-luc 1.8-fold or more were classified as “++”) | 
6 | 2.0 fold | 2.2 fold | O=C(Nc1ccc2[nH]ncc2c1)c1ccc(F)cc1 [OAC7] | ++ (Compounds that induce Oct4-luc 1.8-fold or more were classified as “++”) | 
7 | 1.4 fold | 1.4 fold | COc1cccc(C(=O)Nc2ccc3[nH]ncc3c2)c1OC [Compound C27] | + (molecules that induce Oct4-luc less than 1.8-fold were indicated as “+”) | 
8 | 4.5 fold | 4.49 fold | O=C(Nc1ccc2[nH]ncc2c1)c1ccc(Br)cc1 [OAC18] | ++ (Compounds that induce Oct4-luc 1.8-fold or more were classified as “++”) | 
9 | 4.9 fold | 4.8 fold | COc1ccc(C(=O)Nc2ccc3[nH]ccc3c2)cc1 [OAC4] | ++ (Compounds that induce Oct4-luc 1.8-fold or more were classified as “++”) | 
10 | 2.6 fold | 2.7 fold | CCOc1cccc(C(=O)Nc2ccc3[nH]ncc3c2)c1 [OAC14] | ++ (Compounds that induce Oct4-luc 1.8-fold or more were classified as “++”) | 
11 | 1.4 fold | 1.4 fold | COc1ccc(C(=O)Nc2ccc3[nH]ncc3c2)c(OC)c1 [Compound C28] | + (molecules that induce Oct4-luc less than 1.8-fold were indicated as “+”) | 
12 | 2.9 fold | 2.8 fold | Cc1ccc(C(=O)Nc2ccc3[nH]ncc3c2)cc1C [OAC13] | ++ (Compounds that induce Oct4-luc 1.8-fold or more were classified as “++”) | 
13 | 1.1 fold | 1.1 fold | COc1ccc(C(=O)Nc2ccc3[nH]ncc3c2)cc1OC [Compound C29] | + (molecules that induce Oct4-luc less than 1.8-fold were indicated as “+”) | 
14 | 1.2 fold | 1.2 fold | CCOc1ccccc1C(=O)Nc1ccc2[nH]ncc2c1 [Compound C26] | + (molecules that induce Oct4-luc less than 1.8-fold were indicated as “+”) | 

Further lines, the compound ahead of its results:

Row | Compound | Nanog-luc fold Induction (human Nanog promoter) | Oct4-luc fold Induction (human Oct4 promoter) | Oct4-luc Activity (human Oct4 promoter) | other results
15 | Cc1cccc(-c2[nH]ncc2-c2ccc3ncccc3n2)n1 [RepSox2] |  |  |  | Colony numbers (MEFs; [1]): 7.5; Reprogramming efficiency (MEFs; [1]): 0.1%
16 | O=C1Cc2c([nH]c3ccc(Br)cc23)-c2ccccc2N1 [Kenpaullone, kenpaullone] |  |  |  | Colony numbers (MEFs; [2]): 100; Reprogramming efficiency (MEFs; [2]): 0.2%
17 | CC(C)(C)OC(=O)Nc1ccc(C(=O)Nc2ccc3[nH]ncc3c2)cc1 [Compound C38] |  |  |  | fold induction at 1 µM (human Nanog promoter): 1.09; fold induction at 1 µM (human Oct4 promoter; [3]): < 1.8; fold induction at 1 µM (human Oct4 promoter; [4]): 1.2
18 | O=C(Nc1ccc2[nH]ccc2c1)c1ccc(F)cc1 [OAC3, 4-fluoro-N-(1H-indol-5-yl)benzamide] |  |  |  | fold induction at 1 µM (human Nanog promoter): 3.5; fold induction at 1 µM (human Oct4 promoter; [3]): ≥ 1.8; fold induction at 1 µM (human Oct4 promoter; [4]): 3.7
19 | O=C(Nc1ccc2[nH]ncc2c1)c1cccc(Br)c1 [Compound C20] | 1.1 fold | 1.5 fold | + (molecules that induce Oct4-luc less than 1.8-fold were indicated as “+”) | 
20 | O=C(Nc1ccc2[nH]ncc2c1)c1c(F)c(F)c(F)c(F)c1F [Compound C36] |  |  |  | fold induction at 1 µM (human Nanog promoter): 1.02; fold induction at 1 µM (human Oct4 promoter; [3]): < 1.8; fold induction at 1 µM (human Oct4 promoter; [4]): 1
21 | O=C(Nc1ccc2[nH]ncc2c1)c1ccccc1F [Compound C22] | 1.6 fold | 1.5 fold | + (molecules that induce Oct4-luc less than 1.8-fold were indicated as “+”) | 
22 | CC(C)(C)OC(=O)NCc1ccc(C(=O)Nc2ccc3[nH]ncc3c2)cc1 [Compound C40] |  |  |  | fold induction at 1 µM (human Nanog promoter): 0.96; fold induction at 1 µM (human Oct4 promoter; [3]): < 1.8; fold induction at 1 µM (human Oct4 promoter; [4]): 0.97
23 | NCc1ccc(C(=O)Nc2ccc3[nH]ncc3c2)cc1 [Compound C41] |  |  |  | fold induction at 1 µM (human Nanog promoter): 1.06; fold induction at 1 µM (human Oct4 promoter; [3]): < 1.8; fold induction at 1 µM (human Oct4 promoter; [4]): 1.01
24 | CN1CCC(c2c[nH]c3ccc(NC(=O)c4ccc(F)cc4)cc23)CC1 [Compound C16] | 1.1 fold | 1.0 fold | + (molecules that induce Oct4-luc less than 1.8-fold were indicated as “+”) | 
25 | O=C(CCCCC1SCC2NC(=O)NC21)NCc1ccc(C(=O)Nc2ccc3[nH]ncc3c2)cc1 (centres unmarked) [Compound C42] |  |  |  | fold induction at 1 µM (human Nanog promoter): 0.97; fold induction at 1 µM (human Oct4 promoter; [3]): < 1.8; fold induction at 1 µM (human Oct4 promoter; [4]): 0.91
26 | O=C(Nc1ccc2[nH]ncc2c1)c1cc(F)c(F)cc1Cl [Compound C35] |  |  |  | fold induction at 1 µM (human Nanog promoter): 1.24; fold induction at 1 µM (human Oct4 promoter; [3]): < 1.8; fold induction at 1 µM (human Oct4 promoter; [4]): 1.15
27 | O=C1O[C@H]([C@@H](O)CO)C(O)=C1O [Vc, Vitamin C, reference compound] |  |  |  | induction of Nanog-luc, comparison with known reprogramming enhancers (in words) (human Nanog promoter): no significant effect; induction of Oct4-luc, comparison with known reprogramming enhancers (in words) (human Oct4 promoter): no significant effect
28 | COc1ccc(Cl)cc1C(=O)Nc1ccc2[nH]ncc2c1 [Compound C34] |  |  |  | fold induction at 1 µM (human Nanog promoter): 1.38; fold induction at 1 µM (human Oct4 promoter; [3]): < 1.8; fold induction at 1 µM (human Oct4 promoter; [4]): 1.23
29 | CC1(C)CCC(C)(C)c2cc(C(=O)Nc3ccc(C(=O)O)cc3)ccc21 [Am580, reference compound] |  |  |  | induction of Nanog-luc, comparison with known reprogramming enhancers (in words) (human Nanog promoter): no significant effect; induction of Oct4-luc, comparison with known reprogramming enhancers (in words) (human Oct4 promoter): no significant effect
30 | COc1cc(C(=O)Nc2ccc3[nH]nnc3c2)cc(OC)c1OC [Compound C37] |  |  |  | fold induction at 1 µM (human Nanog promoter): 1.08; fold induction at 1 µM (human Oct4 promoter; [3]): < 1.8; fold induction at 1 µM (human Oct4 promoter; [4]): 1.05
31 | O=C(Nc1ccc2[nH]ncc2c1)c1cccc(F)c1 [Compound C18] | 1.2 fold | 1.3 fold | + (molecules that induce Oct4-luc less than 1.8-fold were indicated as “+”) | 
